Laboratory results taken from ChEMBL document CHEMBL1124356, “Active reduced-size hexapeptide analogues of luteinizing hormone-releasing hormone” (J Med Chem, 1989).

Key:
[1] = biological target: T1, Gonadotropin-releasing hormone receptor (Rattus norvegicus, UniProt P30969); test: In vitro binding affinity towards […] from rat pituitary cells is expressed as negative logarithm of the equilibrium dissociation constant; format: cell-based, Pituitary gland cell
T1 sequence (P30969 whole entry): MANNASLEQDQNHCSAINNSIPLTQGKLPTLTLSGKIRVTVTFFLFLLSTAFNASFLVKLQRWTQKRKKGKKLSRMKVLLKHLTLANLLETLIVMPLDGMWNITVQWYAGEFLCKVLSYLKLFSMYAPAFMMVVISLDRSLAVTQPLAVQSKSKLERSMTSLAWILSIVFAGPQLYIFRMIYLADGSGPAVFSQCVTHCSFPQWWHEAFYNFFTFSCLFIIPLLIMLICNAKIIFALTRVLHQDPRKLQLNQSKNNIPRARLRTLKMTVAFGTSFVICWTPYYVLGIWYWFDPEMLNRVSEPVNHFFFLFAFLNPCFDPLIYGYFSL

[2] = biological target: Gonadotropin-releasing hormone receptor (Rattus norvegicus) (UniProt P30969); test: Luteinizing hormone inhibiting potency in rats is expressed as negative logarithm of the concentration (antagonist); details: read-out: pA2 (converted)

SMILES | Ki [1] | Kb [2]
CCNC(=O)[C@@H]1CCCN1C(=O)[C@H](CCCN=C(N)N)NC(=O)[C@H](CC(C)C)NC(=O)[C@@H](CC(C)C)NC(=O)[C@H](Cc1ccc(O)cc1)NC(=O)[C@H](CO)NC(=O)[C@@H](N)Cc1cccc2ccccc12 | 50.1 nM | –
CCNC(=O)[C@@H]1CCCN1C(=O)[C@H](CCCN=C(N)N)NC(=O)[C@H](CC(C)C)NC(=O)[C@@H](CC(C)C)NC(=O)[C@H](Cc1ccc(O)cc1)NC(=O)[C@H](CO)NC(=O)[C@@H](N)Cc1c[nH]c2ccccc12 | – | 871 nM
CCNC(=O)[C@@H]1CCCN1C(=O)[C@H](CCCN=C(N)N)NC(=O)[C@H](CC(C)C)NC(=O)[C@@H](Cc1c[nH]c2ccccc12)NC(=O)[C@H](Cc1ccc(O)cc1)NC(=O)[C@H](CO)NC(=O)[C@@H](N)Cc1c[nH]c2ccccc12 | – | 57.5 nM
